{"source": "patent US12317891B2", "about": "“Protein product capable of immobilizing target and being cleared as required” (SHAANXI NORMAL UNIVERSITY, priority 2020, dated 2025)", "system": "snails", "experiment": "Insect control performance verification: cabbage leaves fed to snails", "type": "in vivo", "conditions": "leaves sprayed with 10 mg/mL suspension; 10 snails per group", "from_the_text": "Cabbage leaves each at a size of 5 cm×5 cm were divided into four groups with four cabbage leaves in each group. […] The four groups of leaves were respectively administered to four groups of snails with 10 snails in each group. The consumption rate by the snails for the untreated cabbage leaf group was almost 100%. The consumption rate by the snails for the cabbage leaves simply sprayed with the imidacloprid suspension was about 30%. […] The consumption rate by the snails for the cabbage leaves that were first sprayed with the suspension of the protein product of the present disclosure and then treated with the Vc aqueous solution or the fruit and vegetable detergent was increased to 80%."}
{"smiles": "O=[N+]([O-])NC1=NCCN1Cc1ccc(Cl)nc1", "note": "[imidacloprid]", "values": [{"measurement": "consumption rate of cabbage leaves by the snails", "result": "about 30%"}]}
